# According to article PMC11594329, “Development of LAT1-Selective Nuclear Medicine Therapeutics Using Astatine-211” (International Journal of Molecular Sciences, 2024):
# How the values were obtained:
# [1] = system: LAT1-Tet/HEK293 cells; experiment: Uptake versus LAT1 expression level (Dox-induced) in LAT1-Tet/HEK293 cells; type: cell-based; conditions: collection 30 min after treatment
# Procedure: Each cell line was seeded in 24 wells at 1 × 10^5 cells/mL and allowed to become sub-confluent on the day of the experiment. Cells were washed with PBS (-) (Fujifilm Wako Pure Chemical, Osaka, Japan) prior to the addition of the compound, which was then replaced with uptake buffer. After treating the cells with the same dose, they were collected at predetermined time points. The cell dose was measured using a γ-counter (Wizard^2 2480; PerkinElmer, Waltham, MA, USA), and the protein content of the sample was determined. Protein content was measured using the BCA method, and the dose was corrected using the protein content (Protein Assay BCA kit, Fujifilm Wako Pure Chemical).
# Figure 2 Comparison of uptake between the labeled compounds. (A) Relation between uptake ratio and LAT1 expression level. Uptake ratios were compared between LAT1-Tet/HEK293 cells. The Y-axis represents the uptake ratio, and the X-axis is concentration of Doxycycline (Dox) (TaKaRa Bio, Shiga, Japan). The collection time was 30 min after treatment. The expression of LAT1 increased with increasing amounts of Dox. (B) Comparison of uptake in PANC-1 cell line. The collection times were 0.5, 1, 5 and 10 min after treatment.
# The PANC-1 cell line was obtained from the RIKEN Cell Bank and maintained in RPMI 1640 medium (Fujifilm Wako Pure Chemical, Osaka, Japan) supplemented with 10% inactivated fetal bovine serum (Thermo Fisher Scientific, Waltham, MA, USA). Mock/HEK293, LAT1/HEK293, and LAT2/HEK203 cells were kindly provided by Dr. Kanai. Cell lines controlling LAT1 expression were constructed using the Tet-on system. HEK293 cells were obtained from the RIKEN Cell Bank and maintained in E-MEM (Fujifilm Wako Pure Chemical) supplemented with 10% inactivated fetal bovine serum (Thermo Fisher Scientific) and non-essential amino acids (Fujifilm Wako Pure Chemical). The expression vectors were purchased from VectorBuilder, Inc. (Kanagawa, Japan). The purified viral particle genes were transfected into HEK293 cells. Drug selection and cloning of the cell line (Tet-LAT1/HEK293) were performed. […]
# [2] = system: PANC-1 tumor model; experiment: Tissue distribution in nude mice (PANC-1 tumor model); type: in vivo, BALB/c nu/nu mice; conditions: nude mice (PANC-1 tumor model)
# Procedure: BALB/c nu/nu mice (male, 5 weeks old) were purchased from Japan SLC (Shizuoka, Japan) and subcutaneously transplanted at a density of 1 × 10^7 cells/mouse. PANC-1 cells that reached the logarithmic growth phase were transplanted subcutaneously by mixing a 1 × 10^8 cells/mL cell suspension with an equivalent volume of Matrigel (Corning, Corning, NY, USA) to obtain 1 × 10^7 cells per mouse. Experiments were performed after the size of the transplanted tumor had exceeded 50 mm^3. The doses in the distribution experiments were as follows: ^211At-AAMT-OH-L (0.501 ± 0.011 MBq/mouse, 19.91 ± 0.59 g, n = 3) and ^211At-AAMT-O-Me-L (0.384 ± 0.003 MBq/mouse, 19.18 ± 0.38 g, n = 6 for Table 3), ^211At-AAMT-O-Me-L (158.10 ± 2.94 kBq/mouse, 19.27 ± 0.64 g, n = 6) and ^211At-AAMT-O-Me-D (135.08 ± 2.35 kBq/mouse, 18.64 ± 0.97 g, n = 6), ^211At-AAMT-O-Et-L (0.682 ± 0.011 MBq/mouse, 20.25 ± 1.41 g, n = 6), ^211At-AAMT-O-Pr-L (0.927 ± 0.020 MBq/mouse, 21.74 ± 0.37 g, n = 6).
# [3] = Tissue distribution in ICR mice (normal animals); type: in vivo
# Description: ICR mice (male, 5 weeks old) were purchased from Japan SLC (Shizuoka, Japan) and acclimated for one week prior to use. The doses in the distribution experiments were as follows: ^211At-AAMT-O-Me-L (0.407 ± 0.005 MBq/mouse, 31.64 ± 0.76 g, n = 6), ^211At-AAMT-O-Me-D (0.351 ± 0.004 MBq/mouse, 31.44 ± 0.94 g, n = 6), ^211At-AAMT-O-Et-L (0.685 ± 0.010 MBq/mouse, 24.14 ± 3.31 g, n = 6), ^211At-AAMT-O-Pr-L (1.09 ± 0.06 MBq/mouse, 26.33 ± 0.39 g, n = 6)
smiles,measurement,setting,value
CCCOc1ccc(C[C@](C)(N)C(=O)O)cc1[211At] [^211At-AAMT-O-Pr-L],Uptake ratio versus LAT1 expression (doxycycline concentration),[1],lower cellular uptake when LAT1 expression increased
same,"Tissue distribution, Bladder",[2]; 10 min after injection,18.24 ± 4.50 %ID/g
same,"Tissue distribution, Blood",[2]; 10 min after injection,4.33 ± 0.45 %ID/g
same,"Tissue distribution, Bone",[2]; 10 min after injection,3.50 ± 0.13 %ID/g
same,"Tissue distribution, Brain",[2]; 10 min after injection,1.01 ± 0.04 %ID/g
same,"Tissue distribution, Cecum",[2]; 10 min after injection,3.35 ± 0.30 %ID/g
same,"Tissue distribution, Colon",[2]; 10 min after injection,4.56 ± 0.31 %ID/g
same,"Tissue distribution, Heart",[2]; 10 min after injection,9.66 ± 0.87 %ID/g
same,"Tissue distribution, Kidney",[2]; 10 min after injection,10.29 ± 0.97 %ID/g
same,"Tissue distribution, Liver",[2]; 10 min after injection,3.67 ± 0.41 %ID/g
same,"Tissue distribution, Lung",[2]; 10 min after injection,18.16 ± 1.88 %ID/g
same,"Tissue distribution, Pancreas",[2]; 10 min after injection,10.85 ± 1.53 %ID/g
same,"Tissue distribution, Salivary glands",[2]; 10 min after injection,11.89 ± 0.06 %ID/g
same,"Tissue distribution, Small intestine",[2]; 10 min after injection,6.80 ± 0.63 %ID/g
same,"Tissue distribution, Spleen",[2]; 10 min after injection,11.84 ± 1.91 %ID/g
same,"Tissue distribution, Stomach",[2]; 10 min after injection,7.31 ± 0.30 %ID/g
same,"Tissue distribution, Testis",[2]; 10 min after injection,3.54 ± 0.28 %ID/g
same,"Tissue distribution, Thyroid",[2]; 10 min after injection,9.74 ± 0.39 %ID/g
same,"Tissue distribution, Tumor",[2]; 10 min after injection,5.91 ± 0.27 %ID/g
same,"Tissue distribution, Bladder",[2]; 1 h after injection,18.00 ± 0.97 %ID/g
same,"Tissue distribution, Blood",[2]; 1 h after injection,3.09 ± 0.25 %ID/g
same,"Tissue distribution, Bone",[2]; 1 h after injection,2.03 ± 0.45 %ID/g
same,"Tissue distribution, Brain",[2]; 1 h after injection,0.79 ± 0.13 %ID/g
same,"Tissue distribution, Cecum",[2]; 1 h after injection,3.07 ± 1.06 %ID/g
same,"Tissue distribution, Colon",[2]; 1 h after injection,3.27 ± 0.46 %ID/g
same,"Tissue distribution, Heart",[2]; 1 h after injection,5.39 ± 1.06 %ID/g
same,"Tissue distribution, Kidney",[2]; 1 h after injection,5.76 ± 0.67 %ID/g
same,"Tissue distribution, Liver",[2]; 1 h after injection,2.41 ± 0.24 %ID/g
same,"Tissue distribution, Lung",[2]; 1 h after injection,14.15 ± 1.78 %ID/g
same,"Tissue distribution, Pancreas",[2]; 1 h after injection,3.54 ± 0.49 %ID/g
same,"Tissue distribution, Salivary glands",[2]; 1 h after injection,20.98 ± 3.26 %ID/g
same,"Tissue distribution, Small intestine",[2]; 1 h after injection,5.08 ± 0.53 %ID/g
same,"Tissue distribution, Spleen",[2]; 1 h after injection,17.42 ± 6.48 %ID/g
same,"Tissue distribution, Testis",[2]; 1 h after injection,3.56 ± 0.41 %ID/g
same,"Tissue distribution, Thyroid",[2]; 1 h after injection,16.44 ± 1.16 %ID/g
same,"Tissue distribution, Tumor",[2]; 1 h after injection,9.45 ± 0.82 %ID/g
same,"Tissue distribution, Bladder",[3]; 1 h after injection,20.82 ± 5.36 %ID/g
same,"Tissue distribution, Blood",[3]; 1 h after injection,1.77 ± 0.15 %ID/g
same,"Tissue distribution, Bone",[3]; 1 h after injection,1.79 ± 0.12 %ID/g
same,"Tissue distribution, Brain",[3]; 1 h after injection,0.25 ± 0.02 %ID/g
same,"Tissue distribution, Cecum",[3]; 1 h after injection,1.49 ± 0.14 %ID/g
same,"Tissue distribution, Colon",[3]; 1 h after injection,1.35 ± 0.07 %ID/g
same,"Tissue distribution, Heart",[3]; 1 h after injection,3.14 ± 0.20 %ID/g
same,"Tissue distribution, Kidney",[3]; 1 h after injection,2.25 ± 0.19 %ID/g
same,"Tissue distribution, Liver",[3]; 1 h after injection,1.18 ± 0.08 %ID/g
same,"Tissue distribution, Lung",[3]; 1 h after injection,6.54 ± 0.34 %ID/g
same,"Tissue distribution, Pancreas",[3]; 1 h after injection,2.55 ± 0.60 %ID/g
same,"Tissue distribution, Salivary glands",[3]; 1 h after injection,14.23 ± 3.16 %ID/g
same,"Tissue distribution, Small intestine",[3]; 1 h after injection,1.83 ± 0.23 %ID/g
same,"Tissue distribution, Spleen",[3]; 1 h after injection,4.11 ± 0.11 %ID/g
same,"Tissue distribution, Stomach",[3]; 1 h after injection,13.55 ± 2.66 %ID/g
same,"Tissue distribution, Testis",[3]; 1 h after injection,3.66 ± 0.14 %ID/g
same,"Tissue distribution, Thymus",[3]; 1 h after injection,2.03 ± 0.28 %ID/g
same,"Tissue distribution, Thyroid",[3]; 1 h after injection,23.08 ± 3.56 %ID/g
same,"Tissue distribution, Bladder",[3]; 3 h after injection,5.37 ± 0.73 %ID/g
same,"Tissue distribution, Blood",[3]; 3 h after injection,1.30 ± 0.12 %ID/g
same,"Tissue distribution, Bone",[3]; 3 h after injection,1.32 ± 0.12 %ID/g
same,"Tissue distribution, Brain",[3]; 3 h after injection,0.16 ± 0.01 %ID/g
same,"Tissue distribution, Cecum",[3]; 3 h after injection,1.13 ± 0.25 %ID/g
same,"Tissue distribution, Colon",[3]; 3 h after injection,1.29 ± 0.25 %ID/g
same,"Tissue distribution, Heart",[3]; 3 h after injection,2.16 ± 0.18 %ID/g
same,"Tissue distribution, Kidney",[3]; 3 h after injection,1.93 ± 0.29 %ID/g
same,"Tissue distribution, Liver",[3]; 3 h after injection,0.82 ± 0.14 %ID/g
same,"Tissue distribution, Lung",[3]; 3 h after injection,5.09 ± 0.43 %ID/g
same,"Tissue distribution, Pancreas",[3]; 3 h after injection,1.60 ± 0.31 %ID/g
same,"Tissue distribution, Salivary glands",[3]; 3 h after injection,11.39 ± 0.33 %ID/g
same,"Tissue distribution, Small intestine",[3]; 3 h after injection,1.92 ± 0.12 %ID/g
same,"Tissue distribution, Spleen",[3]; 3 h after injection,3.56 ± 0.54 %ID/g
same,"Tissue distribution, Stomach",[3]; 3 h after injection,32.05 ± 3.31 %ID/g
same,"Tissue distribution, Testis",[3]; 3 h after injection,2.34 ± 0.42 %ID/g
same,"Tissue distribution, Thymus",[3]; 3 h after injection,1.76 ± 0.25 %ID/g
same,"Tissue distribution, Thyroid",[3]; 3 h after injection,24.75 ± 3.77 %ID/g
